According to patent publication US5596002A, “Method of treating chloroquine-resistant malaria with aminoquinoline derivatives” (Hoffmann-La Roche Inc., priority 1993, dated 1997):
Values after ≈ are worked out from the molar mass of the structure shown. Read-outs that look alike come from different tables or passages of the source.

Key:
[1] = tested on: Plasmodium falciparum, chloroquine-resistant strain RFCR3; test: activity against P. falciparum in vitro, strain RFCR3; assay type: cell-based; settings: chloroquine-resistant strain RFCR3, 48 h-72 h, read-out: IC50 (50% growth inhibition)
Procedure: (§1) Test method for the determination of the activity against P. falciparum in vitro
(§2) The preparations of the present invention were tested on intraerythrocytary stages of P. falciparum from asynchronous cultures according to the method of Desjardin et al. (Desjardins, R. E. et al: Quantitative assessment of antimalarial activity in vitro by a semiautomated microdilution technique. Antimicrob. Agents Chemother. 16, 710-718, (1979)).
(§3) The culture medium consisted of RPMI 1640 with the addition of 25 mM HEPES, 25 mM NaHCO3, […] neomycin and 10% human serum (A^+). Human-A^+ erythrocytes were used as the P. falciparum host cells. The parasites were maintained at 37° C. in an atmosphere of 3% O2, 4% CO2, 93% N2 and at 95% relative humidity.
(§4) In order to determine the activity, the preparations were dissolved in DMSO, pre-diluted in the culture medium to a suitable starting concentration and subsequently titrated-out into microtitre plates in the 2nd stage over 6-7 steps. After the addition of the parasite culture (0.7% parasitemia in 2.5% erythrocyte suspension), the test plates were incubated under the conditions given above for 48 h-72 h. The parasite growth in the different preparation concentrations was determined using [G-^3 H]-hypoxanthin incorporation compared to untreated control cultures on the same test plates. The 50% growth inhibition (IC50) was calculated according to logit regression analysis from the resulting dosage-activity curve.
(§5) The preparations were tested on at least one chloroquine-resistant and one chloroquine-sensitive P. falciparum strain. Additional sensitive and resistant strains were also included for further characterization.
(§6) Table 1 below contains the IC50 values measured in vitro for the growth inhibition of chloroquine-sensitive and chloroquine-resistant strains of the human pathogenic Plasmodium falciparum.

[2] = tested on: Plasmodium falciparum, chloroquine-resistant strain ItG2 F6; test: activity against P. falciparum in vitro, strain ItG2 F6; assay type: cell-based; settings: chloroquine-resistant strain ItG2 F6, 48 h-72 h, read-out: IC50 (50% growth inhibition)
Procedure: as §1, §2, §3, §4, §5, §6

[3] = tested on: Plasmodium falciparum, chloroquine-sensitive strain FCH5C2; test: activity against P. falciparum in vitro, strain FCH5C2; assay type: cell-based; settings: chloroquine-sensitive strain FCH5C2, 48 h-72 h, read-out: IC50 (50% growth inhibition)
Procedure: as §1, §2, §3, §4, §5, §6

[4] = tested on: Plasmodium falciparum, chloroquine-sensitive strain NF54; test: activity against P. falciparum in vitro, strain NF54; assay type: cell-based; settings: Plasmodium falciparum; chloroquine-sensitive strain NF54; 48 h-72 h; read-out: IC50 (50% growth inhibition)
Procedure: as §1, §2, §3, §4, §5, §6

[5] = tested on: Plasmodium falciparum, chloroquine-resistant strain Indo; test: activity against P. falciparum in vitro, strain Indo; assay type: cell-based; settings: chloroquine-resistant strain Indo, 48 h-72 h, read-out: IC50 (50% growth inhibition)
Procedure: as §1, §2, §3, §4, §5, §6

[6] = tested on: Plasmodium falciparum, chloroquine-resistant strain 7G8; test: activity against P. falciparum in vitro, strain 7G8; assay type: cell-based; settings: chloroquine-resistant strain 7G8, 48 h-72 h, read-out: IC50 (50% growth inhibition)
Procedure: as §1, §2, §3, §4, §5, §6

[7] = tested on: Plasmodium falciparum, chloroquine-sensitive strain HB3; test: activity against P. falciparum in vitro, strain HB3; assay type: cell-based; settings: chloroquine-sensitive strain HB3, 48 h-72 h, read-out: IC50 (50% growth inhibition)
Procedure: as §1, §2, §3, §4, §5, §6

[8] = tested on: Plasmodium falciparum, chloroquine-sensitive strain Ro7 3; test: activity against P. falciparum in vitro, strain Ro7 3; assay type: cell-based; settings: chloroquine-sensitive strain Ro7 3, 48 h-72 h, read-out: IC50 (50% growth inhibition)
Procedure: as §1, §2, §3, §4, §5, §6

[9] = tested on: Plasmodium berghei (strain ANKA); test: activity against Plasmodium berghei in vivo (infected mice); settings: mice; for ED50: single administration po, dose reducing average erythrocyte infection rate by 50%, read-out: ED50 (po); for inhibition in vivo at 10 mg/kg: 48 hours after treatment (D+3)
Procedure: Test method for the determination of the activity against Plasmodium berghei in vivo
The preparations according to the present invention were tested on mice infected with malaria pathogens (Plasmodium berghei). Male albino mice (IBM:MORO(SPF), FUELLINSDORF) weighing about 25 g were used as the test animals. They were kept in climatized rooms at 21°-22° C. in groups of 5 animals per cage. They received ad libitum a diet feed with a low PABA content ("NAFAG FUTTER" No. 9009 PAB-45, PABA content 45 mg/kg) and drinking water. On the first day of the test (D0) the test animals were infected with Plasmodium berghei (strain ANKA). For this there was used heparinized blood of a donor mouse with about 30% parasitemia, which was diluted with physiological saline such that it contains 10^8 parasitized erythrocytes per ml. 0.2 ml of this suspension was injected intravenously (i.v.) into the mice to be treated and into the control mice. In untreated control animals the parasitemia normally reaches 30-40% on the third day after the infection (D+3) and the test animals die between days +5 and +7.
The substances to be tested were dissolved or suspended in distilled water or in a mixture of 7% Tween 80, 3% alcohol (96%) and water. Usually, 0.25 ml of this solution or suspension was administered once subcutaneously and perorally to groups of 5 test animals. Treatment was effected 24 hours after the infection. 10 control animals were treated in the same manner with solvent or suspension medium per test.
All substances were tested in a first test in a single dosage of 10 mg/kg. Only those substances which in this test (10 mg/kg) had shown a parasitaemia reduction of 90% were used for the titration.
48 hours after the treatment (D+3), blood smears were prepared from all animals using blood from tail veins and were stained with Giemsa. The average erythrocyte infection rate (parasitemia in %) in the control groups as well as in the groups which had been treated with the test compounds was determined by counting under a microscope. The difference in the average values of the infection rates of control group (100%) and treated groups was calculated and expressed as a percentage reduction (GI %). The ED50 or ED90 was determined mathematically by means of the JMP programme (nonlinear fit). The ED50 (ED90) in mg/kg is that dose which after single administration reduces the average erythrocyte infection rate by 50% (90%) in comparison to the control group.
Table 2 below contains data with respect to the activity measured against Plasmodium berghei in mice: GI % is the percentage reduction in the parasitemia after a single dose of 10 mg/kg of the test substance administered perorally (po) or subcutaneously (sc); ED50 and ED90 are the effective doses of the test substance administered perorally or subcutaneously.

[10] = tested on: Plasmodium falciparum, chloroquine-sensitive strain RFMEF3; test: activity against P. falciparum in vitro, strain RFMEF3; assay type: cell-based; settings: chloroquine-sensitive strain RFMEF3, 48 h-72 h, read-out: IC50 (50% growth inhibition)
Procedure: as §1, §2, §3, §4, §5, §6

[11] = tested on: Plasmodium falciparum, chloroquine-resistant strain W2 Mef; test: activity against P. falciparum in vitro, strain W2 Mef; assay type: cell-based; settings: 48 h-72 h, read-out: IC50 (50% growth inhibition)
Procedure: as §1, §2, §3, §4, §5, §6

[12] = tested on: Plasmodium falciparum, chloroquine-resistant strain K1; test: activity against P. falciparum in vitro, strain K1; assay type: cell-based; settings: Plasmodium falciparum; chloroquine-resistant strain K1; 48 h-72 h; read-out: IC50 (50% growth inhibition)
Procedure: as §1, §2, §3, §4, §5, §6

[13] = tested on: Plasmodium falciparum, chloroquine-resistant strain W2; test: activity against P. falciparum in vitro, strain W2; assay type: cell-based; settings: chloroquine-resistant strain W2, 48 h-72 h, read-out: IC50 (50% growth inhibition)
Procedure: as §1, §2, §3, §4, §5, §6

[14] = single dose 10 mg/kg po, read-out: GI % at 10 mg/kg (po): percentage reduction in the parasitemia
[15] = single dose 10 mg/kg sc, read-out: GI % at 10 mg/kg (sc): percentage reduction in the parasitemia

SMILES	IC50 [1] [ng/mL]	IC50 [2] [ng/mL]	IC50 [3] [ng/mL]	IC50 [4] [ng/mL]	IC50 [5] [ng/mL]	IC50 [6] [ng/mL]	IC50 [7] [ng/mL]	IC50 [8] [ng/mL]	ED50 [9] [mg/kg]	inhibition in vivo at 10 mg/kg [9, 14] [%]	inhibition in vivo at 10 mg/kg [9, 15] [%]	IC50 [10] [ng/mL]	IC50 [11] [ng/mL]	IC50 [12] [ng/mL]	IC50 [13] [ng/mL]
CCN(CC)[C@@H]1CCC[C@H]1Nc1ccnc2cc(Cl)ccc12 (racemic) [Example 11, (1RS,2RS)-N1-(7-Chloro-quinolin-4-yl)-N2,N2-diethyl-cyclopentane-1,2-diamine]	13 (≈ 0.0409 µM)	6 (≈ 0.0189 µM)	7 (≈ 0.022 µM)	5 (≈ 0.0157 µM)	10 (≈ 0.0315 µM)	9 (≈ 0.0283 µM)	6 (≈ 0.0189 µM)	5 (≈ 0.0157 µM)	2.2	99.9	99.9	6 (≈ 0.0189 µM)	9 (≈ 0.0283 µM)	18 (≈ 0.0566 µM)	15 (≈ 0.0472 µM)
CN1CCCC(Nc2ccnc3cc(Cl)ccc23)C1 (racemic) [Example 19a, (RS)-(7-Chloro-quinolin-4-yl)-(1-methyl-piperidin-3-yl)-amine]	11 (≈ 0.0399 µM)	5 (≈ 0.0181 µM)	7 (≈ 0.0254 µM)	6 (≈ 0.0218 µM)	8 (≈ 0.029 µM)	8 (≈ 0.029 µM)	6 (≈ 0.0218 µM)	5 (≈ 0.0181 µM)	2.4	99.9	99.9	7 (≈ 0.0254 µM)	6 (≈ 0.0218 µM)	9 (≈ 0.0326 µM)	10 (≈ 0.0363 µM)
CN1CCC(Nc2ccnc3cc(Cl)ccc23)C1 (racemic) [Example 33a, (R,S)-(7-Chloro-quinolin-4-yl)-(1-methyl-pyrrolidin-3-yl)-amine]	9 (≈ 0.0344 µM)	5 (≈ 0.0191 µM)	8 (≈ 0.0306 µM)	7 (≈ 0.0267 µM)	9 (≈ 0.0344 µM)	9 (≈ 0.0344 µM)	7 (≈ 0.0267 µM)	5 (≈ 0.0191 µM)	3.3	99.7	99.9	7 (≈ 0.0267 µM)	7 (≈ 0.0267 µM)	8 (≈ 0.0306 µM)	9 (≈ 0.0344 µM)
Clc1ccc2c(NCCN3CCC4CCCCC43)ccnc2c1 (stereo not drawn) [Example 31]	14 (≈ 0.0424 µM)	7 (≈ 0.0212 µM)	5 (≈ 0.0152 µM)	5 (≈ 0.0152 µM)	7 (≈ 0.0212 µM)	9 (≈ 0.0273 µM)	5 (≈ 0.0152 µM)	5 (≈ 0.0152 µM)	–	–	–	6 (≈ 0.0182 µM)	7 (≈ 0.0212 µM)	11 (≈ 0.0333 µM)	14 (≈ 0.0424 µM)
Clc1ccc2c(NCCN3CC4CCC(CC4)C3)ccnc2c1 [Example 32]	16 (≈ 0.0485 µM)	10 (≈ 0.0303 µM)	9 (≈ 0.0273 µM)	7 (≈ 0.0212 µM)	15 (≈ 0.0455 µM)	15 (≈ 0.0455 µM)	9 (≈ 0.0273 µM)	7 (≈ 0.0212 µM)	–	–	–	8 (≈ 0.0243 µM)	13 (≈ 0.0394 µM)	16 (≈ 0.0485 µM)	15 (≈ 0.0455 µM)
